The values below come from patent US20230091810A1, “FIRST-IN-CLASS OF SHMT2 AND MTHFD2 INHIBITORS AS ANTITUMOR AGENTS” (Duquesne University of the Holy Spirit, priority 2017, published 2023).

Read-outs that look alike come from different tables or passages of the source.

What all share (format): cell-based, human
Test [1] has as its system HPAC (PaC). Description: proliferation assay, HPAC pancreatic cancer cells. Conditions: folate-/glycine-free RPMI1640 with 25 nM leucovorin, read-out: IC50s (SE) HPAC (PaC). As for the experimental part: (§1) Proliferation assays were performed with engineered Chinese hamster ovary (CHO) cell lines R2 (transporter-null), PC43-10 (expresses RFC only), RT16 (FRα only), and R2/PCFT4 (PCFT only) cultured in folate-/glycine-free RPMI1640 supplemented with 25 nM leucovorin. Additional results are shown for HCT116 (colon tumor cells (CTC)), IGROV1 (epithelial ovarian cancer (EOC) cells), H460 (non-small cell lung cancer (NSCLC) cells), MIAPaCa-2 (pancreatic cancer (PaC) cells), and HPAC (PaC).
(§2) For proliferation assays of the HCT116, H460, and MIA PaCa2 tumor cell lines, the cells were plated in 96-well plates in an identical manner to the CHO experiments, except that the maximal drug concentration was increased to 10 µM. Glycine/nucleoside protection experiments in CHO and tumor cell lines were performed in folate- and glycine-free RPMI 1640/10% dialyzed fetal bovine serum supplemented with 25 nM leucovorin without additions, or in the presence of adenosine (60 µM), thymidine (10 µM), glycine (130 µM) and/or 5-aminoimidazole-4-carboxamide (AICA) (320 µM). Growth of metabolite-treated cells was normalized to controls treated with metabolites and vehicle (i.e., DMSO) both singly and in combination. Treatments with all metabolites were performed in parallel on the same plate for a given drug.

The test system of test [2] is H460 cells. Description: targeted metabolomics with [2,3,3-2H]serine tracer, H460 cells. Conditions: 10 µM drug. From the text: Identification of the mitochondrial enzyme target for AGF291, AGF320, and AGF347 by targeted metabolomics. […] The cells were processed for LC-MS analyses of total serine, and of M+3, M+2, M+1, and M+0 (unlabeled) serine (where M+n represents species with n deuterium atoms). The results with the drug-treated cells were compared to those for untreated cells. For WT HCT116 cells, the results were compared to those for SHMT2 KO, MTHFD2 KO, and SHMT1 KO cells (KO of SHMT2, MTHFD2, and SHMT1, respectively (20)). For H460 cells, controls included non-targeted control (NTC) and SHMT2 shRNA knockdown (KD) cells.
Targeted Metabolomics. Targeted metabolomics were performed essentially as previously described (47, 53). Briefly, cells (H460, HCT116, MIA PaCa-2) (1 million cells /dish for vehicle-treated samples, 1.5 million cells/dish for drug-treated samples) were seeded in triplicate 60 mm dishes in 5 ml of folate-free RPMI (contains glycine and unlabeled serine) supplemented with 10% dialyzed fetal bovine serum, 1% penicillin/streptomycin, 2 mM L-glutamine, and 25 nM leucovorin. Cells were allowed to adhere for 24 h. […] After 16 h, the cells were washed with PBS (3×), the media was replaced with folate- and serine-free culture media (containing glycine) supplemented with 10% dialyzed fetal bovine serine, 25 nM leucovorin, and [2,3,3-^2H]serine (250 µM), including 10 µM drug or DMSO vehicle. The cells were incubated for 24 h. All incubations were at 37° C. with 5% CO2. The media was aspirated, and cells were washed (3×) rapidly (< 30 s) with 5 mL ice-cold PBS; metabolism was quickly quenched with methanol:water (80:20) at -80° C. Cells were allowed to rock on dry ice for 10 min to cover the entire dish with 80:20 methanol:water (at -80° C.), then harvested by scraping and pipetting into 1.5 mL Eppendorf tubes. […] The supernatants were collected and analyzed by reversed-phase ion-pairing chromatography coupled with negative-mode electrospray-ionization high-resolution mass spectrometry on a stand-alone Orbitrap (ThermoFisher Exactive). […]

Test [3] concerns IGROV1 (EOC). Briefly: proliferation assay, IGROV1 epithelial ovarian cancer cells. The following applies: folate-/glycine-free RPMI1640 with 25 nM leucovorin, read-out: IC50s (SE) IGROV1 (EOC). How it is done:
as §1, §2

In test [4] the test system is MIA PaCa-2 (PaC). Description: proliferation assay, MIA PaCa-2 pancreatic cancer cells. The following applies: folate-/glycine-free RPMI1640 with 25 nM leucovorin, 96 h, read-out: IC50s (SE) MIA PaCa-2 (PaC). As for the experimental part: as §1
Cell culture and proliferation/protection assays. The HCT116 cell lines including the serine hydroxymethyltransferase (SHMT) 1, SHMT2, and methylene THF dehydrogenase 2 (MTHFD2) knockout (KO) cells were previously described (47,53). The H460 cell line was obtained from the American Type Culture Collection (Manassas, VA), whereas the MIA PaCa-2 cells were provided by Dr. Yubin Ge (Karmanos Cancer Institute). Cell lines were verified by STR analysis by Genetica DNA Laboratories (Burlington, NC). MTXRIIOua^R2-4 (i.e. R2) Chinese hamster ovary (CHO) cells were generously provided by Dr. Wayne Flintoff (University of Western Ontario) (54). From this parental R2 cell line, human RFC and PCFT were individually transfected to generate the isogenic CHO cell lines designated PC43-10 (RFC) and R2/PCFT4 (PCFT) (55-57). Human tumor cell lines were cultured in folate-free RPMI supplemented with 10% dialyzed fetal bovine serum (Sigma-Aldrich), 1% penicillin/streptomycin solution, 2 mM L-glutamine, and 25 nM leucovorin in a humidified atmosphere at 37° C. in the presence of 5% CO2 and 95% air. The CHO cell lines were cultured in alpha-minimal essential medium (alpha-MEM) supplemented with 10% bovine calf serum, 1% penicillin/streptomycin solution, and 2 mM L-glutamine. Additionally, the transfected CHO cell lines (i.e. R2/PCFT4 and PC43-10) were maintained under continuous selection with 1 mg/ml of G418.
as §2

Regarding `Nc1nc2ccn(CCCc3ccc(C(=O)N[C@@H](CCC(=O)O)C(=O)O)cc3)c2c(=O)[nH]1` [AGF291], the IC50 in test [1] (Homo sapiens, HPAC) was determined as 0.301 µM; in test [3] (Homo sapiens, IGROV-1), 0.443 µM; in test [4] (Homo sapiens, MIA PaCa-2), 3.66 µM. Also, in test [2], the “dTTP isotope distribution from [2,3,3-2H]serine” value (“dTTP isotope distribution” below) was “M+1 dTTP without M+2 dTTP”.

For “(2-amino-4-oxo-3,4-dihydro-5H-pyrrolo[3,2-d]pyrimidin-5-yl)butyl)-2-fluorobenzoyl)-L-glutamic acid [AGF347]”, the IC50 in test [1] is 0.764 µM; in test [3], 0.062 µM; in test [4], 1.38 µM. Also, in test [2], the “dTTP isotope distribution” value is reported as “M+1 dTTP without M+2 dTTP”.

Consider `Nc1nc2ccn(CCCCCc3ccc(C(=O)N[C@@H](CCC(=O)O)C(=O)O)s3)c2c(=O)[nH]1` [AGF320], for which the IC50 in test [1] is 0.19 µM; in test [3], 0.401 µM; in test [4] it was 2.27 µM. Further, the “dTTP isotope distribution” value in test [2] is “M+1 dTTP without M+2 dTTP”.
